Reference: patent publication US4820695A, “C-20-dihydro-deoxy-(cyclic amino)-derivatives of macrolide antibiotics” (priority 1987, dated 1989)
Values after ≈ are worked out from the molar mass of the structure shown. Read-outs that look alike come from different tables or passages of the source.

Tests used:
[1] = tested on: Streptococcus pyogenes C203; test: ED50 in mice experimentally infected with S. pyogenes C203 (Table XI); format: in vivo; conditions: Streptococcus pyogenes, doses given 1 and 4 hours postinfection, read-out: ED50
Description: The C-20 modified derivatives of this invention have shown in vivo antimicrobial activity against experimentally-induced infections in laboratory animals. When two doses of test compound were administered to mice experimentally infected with S. pyogenes C203, the activity observed was measured as an ED50 value [effective dose in mg/kg to protect 50% of the test animals: see Warren Wick, et al., J. Bacteriol. 81, 233-235 (1961)].
^a mg/kg × 2; doses given 1 and 4 hours postinfection

Klebsiella X26 = test: MIC, standard agar-dilution assay (Table IX); format: cell-based; conditions: read-out: MIC
[2] = tested on: Staphylococcus aureus X400; test: MIC, standard agar-dilution assay (Table IX); format: cell-based; conditions: Staphylococcus aureus X400, Methicillin-resistant strain, read-out: MIC
Escherichia coli TEM = test: MIC, standard agar-dilution assay (Table IX); format: cell-based; conditions: read-out: MIC
Escherichia coli EC14 = test: MIC, standard agar-dilution assay (Table IX); format: cell-based; conditions: read-out: MIC
[3] = Titratable groups in 66% aqueous DMF (Tables XIV-XVI); format: physicochemical
Excerpt: ^c Run in 66% aqueous DMF
^d Run in 66% aqueous DMF

[4] = tested on: Staphylococcus epidermidis EPI1; test: MIC, standard agar-dilution assay (Table IX); format: cell-based; conditions: Staphylococcus epidermidis EPI1; agar-dilution; read-out: MIC
[5] = tested on: Staphylococcus epidermidis 222; test: MIC, standard agar-dilution assay (Table IX); format: cell-based; conditions: read-out: MIC
[6] = tested on: Staphylococcus aureus V41; test: MIC, standard agar-dilution assay (Table IX); format: cell-based; conditions: Staphylococcus aureus V41, Penicillin-resistant strain, read-out: MIC
[7] = tested on: Streptococcus pyogenes C203; test: MIC, standard agar-dilution assay (Table IX); format: cell-based; conditions: read-out: MIC
[8] = tested on: Streptococcus Group D X66; test: MIC, standard agar-dilution assay (Table IX); format: cell-based; conditions: read-out: MIC
[9] = tested on: Staphylococcus aureus S13E; test: MIC, standard agar-dilution assay (Table IX); format: cell-based; conditions: Staphylococcus aureus, S13E
Staphyloccus aureus X1.1 = test: MIC, standard agar-dilution assay (Table IX); format: cell-based, Staphylococcus aureus; conditions: Staphylococcus aureus, read-out: MIC
[10] = tested on: Haemophilus influenzae 76; test: MIC, standard agar-dilution assay (Table IX); format: cell-based; conditions: Haemophilus influenzae 76, Ampicillin-resistant strain, read-out: MIC
[11] = tested on: Streptococcus pneumoniae Park I; test: MIC, standard agar-dilution assay (Table IX); format: cell-based; conditions: Streptococcus pneumoniae Park I; agar-dilution; read-out: MIC
Escherichia coli N10 = test: MIC, standard agar-dilution assay (Table IX); format: cell-based; conditions: read-out: MIC
[12] = tested on: Pasteurella multocida 60A; test: MIC, broth-dilution microtiter test (Table X); format: cell-based; conditions: Avian isolate, read-out: MIC
Excerpt: (§1) The MIC's in Table X were obtained using conventional broth-dilution microtiter tests.

[13] = tested on: Pasteurella multocida 17E; test: MIC, broth-dilution microtiter test (Table X); format: cell-based; conditions: Bovine isolate, read-out: MIC
Excerpt: as §1

[14] = tested on: Pasteurella hemolytica 22C; test: MIC, broth-dilution microtiter test (Table X); format: cell-based; conditions: read-out: MIC
Excerpt: as §1

Staphylococcus aureus = test: MIC, broth-dilution microtiter test (Table X); format: cell-based; conditions: read-out: MIC
Excerpt: as §1

[15] = tested on: Mycoplasma gallisepticum 29C; test: MIC, broth-dilution microtiter test (Table X); format: cell-based; conditions: Mycoplasmoides gallisepticum, read-out: MIC
Excerpt: as §1

[16] = tested on: Mycoplasma hyopneumoniae S5972; test: MIC, broth-dilution microtiter test (Table X); format: cell-based; conditions: Mesomycoplasma hyopneumoniae, read-out: MIC
Excerpt: as §1

Streptococcus sp. 19F = test: MIC, broth-dilution microtiter test (Table X); format: cell-based; conditions: read-out: MIC
Excerpt: as §1

Mycoplasma synoviae 40A = test: MIC, broth-dilution microtiter test (Table X); format: cell-based; conditions: Mycoplasmopsis synoviae, read-out: MIC
Excerpt: as §1

Mycoplasma hyorhinis 29E = test: MIC, broth-dilution microtiter test (Table X); format: cell-based; conditions: read-out: MIC
Excerpt: as §1

[17] = tested on: Haemophilus influenzae C.L.; test: MIC, standard agar-dilution assay (Table IX); format: cell-based; conditions: Ampicillin-sensitive strain, read-out: MIC
[18] = tested on: Streptococcus Group D 2041; test: MIC, standard agar-dilution assay (Table IX); format: cell-based; conditions: GROUPD2041, read-out: MIC
Pasteurella multocida = test: Pasteurella infection in one-day-old chicks, subcutaneous administration (Table XII); format: in vivo; conditions: Administered subcutaneously, 30 mg/kg × 2, 1 and 4 hours post-challenge
Description: Many of the C-20 modified derivatives of this invention have also shown in vivo antibacterial activity against infections induced by gram-negative bacteria. Tables XII and XIII summarize the results of tests in which illustrative compounds were evaluated against a Pasteurella infection in one-day-old chicks. The compounds were administered parenterally or orally after challenge of the chicks with Pasteurella multocida (0.1 ml of a 10^-4 dilution of a twenty-hour tryptose broth culture of an avian P. multocida given subcutaneously). In these tests, unless indicated otherwise, all non-medicated infected chicks died within 24 hours of Pasteurella challenge. In the tests summarized in Table XII, the compounds were administered by subcutaneous injection at a dosage of 30 mg/kg, 1 and 4 hours post-challenge of the chicks with P. multocida. In the tests summarized in Table XIII the compounds were administered in medicated drinking water (at a level of 2 g/gal) available from 4 to 20 hours prior to challenge of the chicks with P. multocida and during the 3 -day test period.
^a Administered subcutaneously; 30 mg/kg × 2

Structure (SMILES)	MIC (Klebsiella X26)	MIC [2]	MIC (Escherichia coli TEM)	MIC (Escherichia coli EC14)	MIC [4]	MIC [5]	MIC [6]	MIC [7]	MIC [8]	MIC [9]	MIC (Staphyloccus aureus X1.1)	MIC [10]	MIC [11]	MIC (Escherichia coli N10)	MIC [12]	MIC [13]	MIC [14]	MIC (Staphylococcus aureus)	MIC [15]	MIC [16]	further results
CCC1OC(=O)CC(O)C(C)C(OC2OC(C)C(OC3CC(C)(O)C(O)C(C)O3)C(N(C)C)C2O)C(CCN2CCCCCC2)CC(C)C(=O)C=CC(C)=CC1COC1OC(C)C(O)C(O)C1OC (stereo not drawn) [Compound M3, 20-DH-DO-20-(hexahydroazepin-1-yl)macrocin]	> 128 µg/mL	32 µg/mL (≈ 32.5 µM)	> 128 µg/mL	> 128 µg/mL	8 µg/mL (≈ 8.12 µM)	2 µg/mL (≈ 2.03 µM)	8 µg/mL (≈ 8.12 µM)	4 µg/mL (≈ 4.06 µM)	> 128 µg/mL	8 µg/mL (≈ 8.12 µM)	4 µg/mL (≈ 4.06 µM)	128 µg/mL (≈ 130 µM)	2 µg/mL (≈ 2.03 µM)	> 128 µg/mL	> 50 µg/mL	> 50 µg/mL	50 µg/mL (≈ 50.7 µM)	12.5 µg/mL (≈ 12.7 µM)	6.25 µg/mL (≈ 6.34 µM)	12.5 µg/mL (≈ 12.7 µM)	ED50 ([1]; C203, Oral): > 100 mg/kg; ED50 ([1]; C203, sc, Subcutaneous): > 10 mg/kg; pKa ([3]; 66% aqueous DMF, read-out: Titratable groups): 9.4; pKa ([3]; 66% aqueous DMF, read-out: Titratable groups (first value)): 6.91; MIC (Streptococcus sp. 19F): 50 µg/mL (≈ 50.7 µM); MIC (Mycoplasma synoviae 40A): 25 µg/mL (≈ 25.4 µM); MIC (Mycoplasma hyorhinis 29E): > 50 µg/mL; MIC [17]: 128 µg/mL (≈ 130 µM); MIC [18]: > 128 µg/mL
CCC1OC(=O)CC(O)C(C)C(OC2OC(C)C(O)C(N(C)C)C2O)C(CCN2CCC(O)CC2)CC(C)C(=O)C=CC(C)=CC1COC1OC(C)C(O)C(OC)C1OC (stereo not drawn) [Compound D3, 20-DH-DO-20-(4-hydroxypiperidin-1-yl)desmycosin]	64 µg/mL (≈ 74.7 µM)	16 µg/mL (≈ 18.7 µM)	> 128 µg/mL	> 128 µg/mL	8 µg/mL (≈ 9.33 µM)	4 µg/mL (≈ 4.67 µM)	8 µg/mL (≈ 9.33 µM)	1 µg/mL (≈ 1.17 µM)	128 µg/mL (≈ 149 µM)	8 µg/mL (≈ 9.33 µM)	8 µg/mL (≈ 9.33 µM)	64 µg/mL (≈ 74.7 µM)	8 µg/mL (≈ 9.33 µM)	> 128 µg/mL	50 µg/mL (≈ 58.3 µM)	50 µg/mL (≈ 58.3 µM)	50 µg/mL (≈ 58.3 µM)	12.5 µg/mL (≈ 14.6 µM)	25 µg/mL (≈ 29.2 µM)	6.25 µg/mL (≈ 7.29 µM)	pKa ([3]; Titratable groups): 8.7; pKa ([3]; Titratable groups (first value)): 7.1; MIC (Streptococcus sp. 19F): 12.5 µg/mL (≈ 14.6 µM); MIC (Mycoplasma synoviae 40A): 6.25 µg/mL (≈ 7.29 µM); MIC (Mycoplasma hyorhinis 29E): 50 µg/mL (≈ 58.3 µM); MIC [17]: 64 µg/mL (≈ 74.7 µM); MIC [18]: 32 µg/mL (≈ 37.3 µM)
CCC1OC(=O)CC(O)C(C)C(OC2OC(C)C(O)C(N(C)C)C2O)C(CCN2CCC(Cc3ccccc3)CC2)CC(C)C(=O)C=CC(C)=CC1COC1OC(C)C(O)C(OC)C1OC (stereo not drawn) [Compound D27, 20-DH-DO-20-(4-benzyl-piperidin-1-yl)desmycosin]	64 µg/mL (≈ 68.7 µM)	1 µg/mL (≈ 1.07 µM)	32 µg/mL (≈ 34.4 µM)	128 µg/mL (≈ 137 µM)	1 µg/mL (≈ 1.07 µM)	0.25 µg/mL (≈ 0.268 µM)	1 µg/mL (≈ 1.07 µM)	0.25 µg/mL (≈ 0.268 µM)	2 µg/mL (≈ 2.15 µM)	1 µg/mL (≈ 1.07 µM)	1 µg/mL (≈ 1.07 µM)	16 µg/mL (≈ 17.2 µM)	0.5 µg/mL (≈ 0.537 µM)	128 µg/mL (≈ 137 µM)	12.5 µg/mL (≈ 13.4 µM)	6.25 µg/mL (≈ 6.71 µM)	12.5 µg/mL (≈ 13.4 µM)	3.12 µg/mL (≈ 3.35 µM)	≤ 0.048 µg/mL	0.39 µg/mL (≈ 0.419 µM)	Number of Deaths/Number Treated (Pasteurella multocida): 8/10; ED50 ([1]; C203, Oral): 16.5 mg/kg; ED50 ([1]; C203, sc, Subcutaneous): 3.81 mg/kg; MIC (Streptococcus sp. 19F): 0.78 µg/mL (≈ 0.838 µM); MIC (Mycoplasma synoviae 40A): ≤ 0.048 µg/mL; MIC (Mycoplasma hyorhinis 29E): 25 µg/mL (≈ 26.8 µM); MIC [17]: 32 µg/mL (≈ 34.4 µM); MIC [18]: 4 µg/mL (≈ 4.3 µM)
